Measurements taken from patent US20230002383A1, “NOVEL FUNCTIONALIZED LACTAMS AS MODULATORS OF THE 5-HYDROXYTRYPTAMINE RECEPTOR 7 AND THEIR METHOD OF USE” (Temple University-Of The Commonwealth System of Higher …, priority 2019, published 2023).

Target: T1, 5-HT7 receptors (Homo sapiens, UniProt P34969)
Experiment: HitHunter cAMP enzyme fragment complementation assay, antagonist activity in presence of 5-HT (Kb)
Assay type: cell-based
Parameters: expressed in transfected cells; kept under G418 selection
Conditions: antagonist mode vs EC70 5-HT
Description: Functional efficacy of the compounds of the disclosure on 5-HT7 serotonin receptors were measured in a cell based cAMP enzyme fragment complementation assay using the HitHunter cAMP assay (DiscoveRx). Cells stably expressing human 5HT7 receptors were plated in 96-well plates at 4000 cells/well, 16-20 hours prior to assay in growth media (Ultraculture medium, 2 mM GlutaMax and G418 1 mg/mL. Serial dilutions of the agonist, 5-hydroxytryptamine (5-HT), were prepared in a final concentration range of 10 μM to 10 nM. Compounds of the disclosure were prepared in 3-fold serial dilutions to obtain a final concentration range of 10 μM to 0.1 nM. Compounds of the disclosure are tested for agonist activity in the absence of 5-HT and antagonist activity in the presence of 5-HT. For the cAMP assay, the protocol was followed according to the instructions provided by the supplier. Briefly, cells were incubated with a compound of the disclosure for 30 minutes at 37° C. prior to addition of EC70 concentration of 5-HT. After an additional 30 minutes, cAMP antibody/cell lysis solution was added (20 μL/well) and incubated for 60 minutes at room temperature, cAMP XS+EA reagent is added (20 μL/well) and incubated for 2 hours at room temperature. Luminescence was read on the Envision Multilabel plate reader.

T1 sequence (P34969 whole entry, the tested form may be a part): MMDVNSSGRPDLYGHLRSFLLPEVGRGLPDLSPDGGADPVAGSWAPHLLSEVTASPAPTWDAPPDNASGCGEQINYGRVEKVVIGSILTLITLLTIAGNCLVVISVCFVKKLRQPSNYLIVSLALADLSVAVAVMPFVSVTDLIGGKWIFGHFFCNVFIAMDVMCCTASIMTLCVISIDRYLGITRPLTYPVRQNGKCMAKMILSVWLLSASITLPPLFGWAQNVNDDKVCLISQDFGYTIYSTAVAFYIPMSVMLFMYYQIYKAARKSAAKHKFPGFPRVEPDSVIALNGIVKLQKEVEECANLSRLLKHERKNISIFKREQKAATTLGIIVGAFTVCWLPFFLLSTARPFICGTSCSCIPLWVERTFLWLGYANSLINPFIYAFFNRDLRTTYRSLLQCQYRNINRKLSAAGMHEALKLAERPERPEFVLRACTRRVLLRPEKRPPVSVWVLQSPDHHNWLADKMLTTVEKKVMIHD

| Compound | Kb [nM] |
| --- | --- |
| NCC(=O)N1CCC2(CC1)C[C@H](CCN1CCN(c3cccc(Cl)c3)CC1)NC2=O [Compound A1] | < 10 |
| NCC(=O)N1CCC2(CC1)C[C@H](CCN1CCN(c3ccc(F)cc3)CC1)NC2=O [Compound A2] | 10 to 100 |
| CC(=O)NCC(=O)N1CCC2(CC1)C[C@H](CCN1CCN(c3cccc(Cl)c3)CC1)NC2=O [Compound A5] | < 10 |
| CC(=O)NCC(=O)N1CCC2(CC1)C[C@H](CCN1CCN(c3ccc(F)cc3)CC1)NC2=O [Compound A6] | < 10 |
| CS(=O)(=O)NCC(=O)N1CCC2(CC1)C[C@H](CCN1CCN(c3cccc(Cl)c3)CC1)NC2=O [Compound A9] | 10 to 100 |
| CS(=O)(=O)NCC(=O)N1CCC2(CC1)C[C@H](CCN1CCN(c3ccc(F)cc3)CC1)NC2=O [Compound A10] | 10 to 100 |
| CC(=O)N[C@@H](C)C(=O)N1CCC2(CC1)C[C@H](CCN1CCN(c3ccc(F)cc3)CC1)NC2=O [Compound A39] | < 10 |
| CC(=O)N[C@@H](C)C(=O)N1CCC2(CC1)C[C@H](CCN1CCN(c3cccc(Cl)c3)CC1)NC2=O [Compound A40] | < 10 |
| O=C(c1cccnc1)N1CCC2(CC1)C[C@H](CCN1CCN(c3ccc(F)cc3)CC1)NC2=O [Compound A81] | 100 to 500 |
| O=C(Cc1nnn[nH]1)N1CCC2(CC1)C[C@H](CCN1CCN(c3ccc(F)cc3)CC1)NC2=O [Compound A82] | ≥ 500 |
| O=C(CN1CCOC1=O)N1CCC2(CC1)C[C@H](CCN1CCN(c3ccc(F)cc3)CC1)NC2=O [Compound A83] | 100 to 500 |
| O=C(c1cccnn1)N1CCC2(CC1)C[C@H](CCN1CCN(c3ccc(F)cc3)CC1)NC2=O [Compound A84] | 100 to 500 |
| CCC1(CC)C[C@H](CCN2CCN(c3ccccc3)CC2)N(C)C1=O [Compound A85] | 10 to 100 |
| CCC1(CC)C[C@H](CCN2CCN(c3cccc(Cl)c3)CC2)N(C)C1=O [Compound A86] | < 10 |
| CCC1(CC)C[C@H](CCN2CCN(c3ccc(F)cc3)CC2)N(C)C1=O [Compound A87] | 10 to 100 |
| CC(=O)N1CCC2(CC1)C[C@H](CCN1CCN(c3ccc(F)cc3)CC1)N(C)C2=O [Compound A88] | 10 to 100 |

| Compound | Kb [nM] |
| --- | --- |
| CC(=O)N1CCC2(CC1)C[C@H](CCN1CCN(c3cccc(Cl)c3)CC1)N(C)C2=O [Compound A89] | 10 to 100 |
| CN1C(=O)C2(CCN(C(=O)C(C)(C)C)CC2)C[C@@H]1CCN1CCN(c2ccc(F)cc2)CC1 [Compound A90] | < 10 |
| CN1C(=O)C2(CCN(C(=O)C(C)(C)C)CC2)C[C@@H]1CCN1CCN(c2cccc(Cl)c2)CC1 [Compound A91] | 10 to 100 |
| CC(F)(F)C(=O)N1CCC2(CC1)C[C@H](CCN1CCN(c3ccc(F)cc3)CC1)NC2=O [Compound A93] | < 10 |
| O=C(CC(F)(F)F)N1CCC2(CC1)C[C@H](CCN1CCN(c3ccc(F)cc3)CC1)NC2=O [Compound A95] | 10 to 100 |
| CCC(=O)N1CCC2(CC1)C[C@H](CCN1CCN(c3ccc(F)cc3)CC1)N(C)C2=O [Compound A97] | < 10 |
| CC(C)C(=O)N1CCC2(CC1)C[C@H](CCN1CCN(c3ccc(F)cc3)CC1)N(C)C2=O [Compound A98] | 10 to 100 |
| CN1C(=O)C2(CCN(C(=O)C3CC3)CC2)C[C@@H]1CCN1CCN(c2ccc(F)cc2)CC1 [Compound A99] | < 10 |
| CN1C(=O)C2(CCN(C(=O)C(C)(F)F)CC2)C[C@@H]1CCN1CCN(c2ccc(F)cc2)CC1 [Compound A103] | < 10 |
| CC(=O)N1CCC2(CC1)C[C@H](CCN1CCN(c3ccc(F)cc3)C[C@@H]1C)NC2=O [Compound A107] | < 10 |
| CC(=O)N1CCC2(CC1)C[C@H](CCN1CCN(c3ccc(F)cc3)C[C@H]1C)NC2=O [Compound A108] | < 10 |
| CC(=O)N1CCC2(CC1)C[C@H](CCN1CCN(c3ccc(F)cc3)[C@@H](C)C1)NC2=O [Compound A109] | 10 to 100 |
| CC(=O)N[C@@H](C)C(=O)N1CCC2(CC1)C[C@H](CCN1CCN(c3ccc(F)cc3)C[C@H]1C)NC2=O [Compound A123] | < 10 |
| COC(=O)N1CCC2(CC1)C[C@H](CCN1CCN(c3ccc(F)cc3)CC1)N(C)C2=O [Compound A124] | 10 to 100 |
| CC[C@H](NC(C)=O)C(=O)N1CCC2(CC1)C[C@H](CCN1CCN(c3ccc(F)cc3)CC1)NC2=O [Compound A183] | < 10 |
| CC(=O)N[C@H](C(=O)N1CCC2(CC1)C[C@H](CCN1CCN(c3ccc(F)cc3)CC1)NC2=O)C(C)C [Compound A184] | < 10 |

Target: T1, 5-HT7 receptors
Experiment: Radiolabeled binding ([3H]LSD competition), membranes of cells expressing recombinant 5-HT7 receptors
Parameters: expressed in transfected cells
Conditions: [3H]LSD radioligand binding
Description: ^1Radiolabeled Binding (IC50 and K1)
A solution of the compound of the disclosure to be tested was prepared as a 1-mg/ml stock in Assay Buffer or DMSO according to its solubility. A similar stock of the reference compound chlorpromazine was also prepared as a positive control. Eleven dilutions (5×assay concentration) of the compound of the disclosure and chlorpromazine were prepared in the Assay Buffer by serial dilution to yield final corresponding assay concentrations ranging from 10 pM to 10 μM.
A stock concentration of 5 nM [^3H]LSD (lysergic acid diethyl amide) was prepared in 50 mM Tris-HCl, 10 mM MgCl2, 1 mM EDTA, pH 7.4 (Assay Buffer). Aliquots (50 μl) of radioligand were dispensed into the wells of a 96-well plate containing 100 μl of Assay Buffer. Duplicate 50-μl aliquots of the compound of the disclosure test and chlorpromazine positive control reference compound serial dilutions were added.
Membrane fractions of cells expressing recombinant 5-HT7 receptors (50 μL) were dispensed into each well. The membranes were prepared from stably transfected cell lines expressing 5-HT7 receptors cultured on 10-cm plates by harvesting PBS-rinsed monolayers, resuspending and lysing in chilled, hypotonic 50 mM Tris-HCl, pH 7.4, centrifuging at 20,000×g, decanting the supernatant and storing at −80° C.; the membrane preparations were resuspended in 3 ml of chilled Assay Buffer and homogenized by several passages through a 26 gauge needle before using in the assay.
The 250-μl reactions were incubated at room temperature for 1.5 hours, then harvested by rapid filtration onto 0.3% polyethyleneimine-treated, 96-well filter mats using a 96-well Filtermate harvester. Four rapid 500-μl washes were performed with chilled Assay Buffer to reduce non-specific binding. The filter mats were dried, then scintillant is added to the filters and the radioactivity retained on the filters was counted in a Microbeta scintillation counter.
Raw data (dpm) representing total radioligand binding (i.e., specific+non-specific binding) was plotted as a function of the logarithm of the molar concentration of the competitor (i.e., test or reference compound). Non-linear regression of the normalized (i.e., percent radioligand binding compared to that observed in the absence of test or reference compound) raw data was performed in Prism 4.0 (GraphPad Software) using the built-in three parameter logistic model describing ligand competition binding to radioligand-labeled sites:
y=bottom+[(top−bottom)/(1+10×−log IC50)]
where bottom equals the residual radioligand binding measured in the presence of 10 μM reference compound (i.e., non-specific binding) and top equals the total radioligand binding observed in the absence of competitor. The log IC50 (i.e., the log of the ligand concentration that reduces radioligand binding by 50%) was thus estimated from the data and used to obtain the Ki by applying the Cheng-Prusoff approximation:
where [ligand] equals the assay radioligand concentration and KD equals the affinity constant of the radioligand for the target receptor. Functional Data (Kb)

| Compound | Ki [nM] |
| --- | --- |
| CS(=O)(=O)NCC(=O)N1CCC2(CC1)C[C@H](CCN1CCN(c3cccc(Cl)c3)CC1)NC2=O [Compound A9] | 50 to 200 |
| CS(=O)(=O)NCC(=O)N1CCC2(CC1)C[C@H](CCN1CCN(c3ccc(F)cc3)CC1)NC2=O [Compound A10] | 50 to 200 |
| CC(C)(N)C(=O)N1CCC2(CC1)C[C@H](CCN1CCN(c3ccc(F)cc3)CC1)NC2=O [Compound A13] | 200 to 500 |
| CC(C)(N)C(=O)N1CCC2(CC1)C[C@H](CCN1CCN(c3cccc(Cl)c3)CC1)NC2=O [Compound A14] | 200 to 500 |
| CC(=O)NC(C)(C)C(=O)N1CCC2(CC1)C[C@H](CCN1CCN(c3ccc(F)cc3)CC1)NC2=O [Compound A17] | 200 to 500 |
| CC(=O)NC(C)(C)C(=O)N1CCC2(CC1)C[C@H](CCN1CCN(c3cccc(Cl)c3)CC1)NC2=O [Compound A18] | 200 to 500 |
| CC(C)(C)C(=O)NC(C)(C)C(=O)N1CCC2(CC1)C[C@H](CCN1CCN(c3ccc(F)cc3)CC1)NC2=O [Compound A21] | 50 to 200 |
| CC(C)(C)C(=O)NC(C)(C)C(=O)N1CCC2(CC1)C[C@H](CCN1CCN(c3cccc(Cl)c3)CC1)NC2=O [Compound A22] | 50 to 200 |
| CC(C)(C)C(=O)NCC(=O)N1CCC2(CC1)C[C@H](CCN1CCN(c3ccc(F)cc3)CC1)NC2=O [Compound A25] | 200 to 500 |
| CC(C)(C)C(=O)NCC(=O)N1CCC2(CC1)C[C@H](CCN1CCN(c3cccc(Cl)c3)CC1)NC2=O [Compound A26] | 200 to 500 |
| CN(C)CC(=O)N1CCC2(CC1)C[C@H](CCN1CCN(c3ccc(F)cc3)CC1)NC2=O [Compound A29] | ≥ 500 |
| CN(C)CC(=O)N1CCC2(CC1)C[C@H](CCN1CCN(c3cccc(Cl)c3)CC1)NC2=O [Compound A30] | 200 to 500 |
| O=C(CN1CCOCC1)N1CCC2(CC1)C[C@H](CCN1CCN(c3ccc(F)cc3)CC1)NC2=O [Compound A33] | ≥ 500 |
| O=C(CN1CCOCC1)N1CCC2(CC1)C[C@H](CCN1CCN(c3cccc(Cl)c3)CC1)NC2=O [Compound A34] | 200 to 500 |
| CCC1(CC)C[C@H](CCN2CCN(c3ccccc3)CC2)N(C)C1=O [Compound A85] | 50 to 200 |
| CCC1(CC)C[C@H](CCN2CCN(c3cccc(Cl)c3)CC2)N(C)C1=O [Compound A86] | < 50 |
| CCC1(CC)C[C@H](CCN2CCN(c3ccc(F)cc3)CC2)N(C)C1=O [Compound A87] | < 50 |

Same assay, conditions: read-out: 5-HT7 % Inhib. @ 0.1 uM (Ki column)

| Compound | inhibition at 0.1 µM [%] |
| --- | --- |
| CC(=O)N1CCC2(CC1)C[C@H](CCN1CCN(c3ccc(F)cc3)C[C@@H]1C)NC2=O [Compound A107] | 62 |
| CC(=O)N1CCC2(CC1)C[C@H](CCN1CCN(c3ccc(F)cc3)C[C@H]1C)NC2=O [Compound A108] | 63 |
| CC(=O)N1CCC2(CC1)C[C@H](CCN1CCN(c3ccc(F)cc3)[C@@H](C)C1)NC2=O [Compound A109] | 40 |
| CC(=O)N[C@@H](C)C(=O)N1CCC2(CC1)C[C@H](CCN1CCN(c3ccc(F)cc3)C[C@H]1C)NC2=O [Compound A123] | 64 |

Same assay, conditions: read-out: 5-HT7 % Inhib. @ 1 uM (Ki column)

| Compound | inhibition at 1 µM [%] |
| --- | --- |
| CC(=O)N1CCC2(CC1)C[C@H](CCN1CCN(c3ccc(F)cc3)[C@H](C)C1)NC2=O [Compound A110] | 45 |
